According to patent US10669268B2, “Bicyclic derivatives” (Hoffmann-La Roche Inc., priority 2012, dated 2020):

What follows are compounds tested against ATX (human His-tagged) (Homo sapiens (Human), UniProt Q13822) (assay: Human ATX enzyme inhibition assay (fluorescence quenching, MR121 substrate)). Details: 30 nM ATX, 1 μM MR121 substrate, 30° C., pH 8.0.
Assay type: biochemical
Summary of the method: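 Fluorescence-quenching assay using MR121 substrate at 1 μM final, incubated 15 min at 30 °C. Buffer was 50 mM Tris-HCl pH 8.0 with 140 mM NaCl, 5 mM KCl, 1 mM CaCl2, 1 mM MgCl2 and 0.01% Triton X-100.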

IC50	SMILES
118 nM	O=C(OCc1cc(Cl)cc(Cl)c1)N1CC[C@H]2CN(C(=O)c3ccc4[nH]nnc4c3)C[C@H]2C1 [Example 10B, (3aS,7aR)-2-(1H-benzotriazole-5-carbonyl)-octahydro-pyrrolo[3,4-c]pyridine-5-carboxylic acid 3,5-dichloro-benzyl ester]
85 nM	CN(Cc1cnn[nH]1)C(=O)N1C[C@H]2CCN(C(=O)CCc3ccc(OC(F)(F)F)cc3)CC[C@H]2C1 [Example 17.01, (3aR,8aS)-N-((1H-1,2,3-triazol-5-yl)methyl)-N-methyl-6-(3-(4-(trifluoromethoxy)phenyl)-propanoyl)octahydropyrrolo[3,4-d]azepine-2(1H)-carboxamide]
2 nM	O=C(c1cc2ccccc2c(OCC(F)(F)F)n1)N1C[C@@H]2CN(C(=O)[C@@H]3CCc4[nH]nnc4C3)C[C@H]2C1 [Example 19.28, [(3aS,6aS)-5-[(5R)-4,5,6,7-tetrahydro-1H-benzotriazole-5-carbonyl]-1,3,3a,4,6,6a-hexahydropyrrolo[3,4-c]pyrrol-2-yl]-[1-(2,2,2-trifluoroethoxy)isoquinolin-3-yl]methanone]
171 nM	CS(=O)(=O)c1ccc(/C=C/C(=O)N2CC[C@@H]3CN(C(=O)c4ccc5[nH]nnc5c4)C[C@@H]3CC2)cc1 [Example 15.68]
156 nM	O=C(/C=C/c1ccccc1)N1CC[C@@H]2CN(C(=O)c3ccc4[nH]nnc4c3)C[C@@H]2CC1 [Example 15.15]
10 nM	O=C(/C=C/c1ccc(OC(F)(F)F)cc1)N1C[C@@H]2CN(C(=O)c3ccc4[nH]nnc4c3)C[C@H]2C1 [Example 15.24]
655 nM	O=C(/C=C/c1ccccc1)N1C[C@@H]2CN(C(=O)c3ccc4[nH]nnc4c3)C[C@H]2C1 [Example 15.56]
10 nM	O=C(CCc1ccc(OC(F)(F)F)c(F)c1)N1C[C@@H]2CN(C(=O)c3ccc4[nH]nnc4c3)C[C@H]2C1 [Example 19.09, 1-[(3aR,6aR)-5-(1H-benzotriazole-5-carbonyl)-hexahydro-pyrrolo[3,4-c]pyrrol-2-yl]-3-(3-fluoro-4-trifluoromethoxy-phenyl)-propan-1-one]
8 nM	O=C(/C=C/c1ccc(SC(F)(F)F)cc1)N1CC[C@@H]2CN(C(=O)c3ccc4[nH]nnc4c3)C[C@@H]2CC1 [Example 15.69, (E)-1-((3aR,8aS)-2-(1H-benzo[d][1,2,3]triazole-5-carbonyl)octahydropyrrolo[3,4-d]azepin-6(7H)-yl)-3-(4-(trifluoromethylthio)phenyl)prop-2-en-1-one]
5 nM	O=C(/C=C/c1ccc(OC(F)(F)F)cc1F)N1C[C@@H]2CN(C(=O)c3ccc4[nH]nnc4c3)C[C@H]2C1 [Example 15.40, (E)-1-((3aR,6aR)-5-(1H-benzo[d][1,2,3]triazole-5-carbonyl)hexahydro-pyrrolo[3,4-c]pyrrol-2(1H)-yl)-3-(2-fluoro-4-(trifluoromethoxy)phenyl)-prop-2-en-1-one]
100 nM	COCCOc1ncc(C(=O)N2C[C@@H]3CN(C(=O)c4ccc5[nH]nnc5c4)C[C@H]3C2)cc1Br [Example 19.40, ((3aS,6aS)-5-(1H-benzo[d][1,2,3]triazole-5-carbonyl)hexahydropyrrolo[3,4-c]pyrrol-2(1H)-yl)(5-bromo-6-(2-methoxyethoxy)pyridin-3-yl)methanone]
362 nM	O=C(CCc1cc(F)cc(C(F)(F)F)c1)N1C[C@@H]2CN(C(=O)c3ccc4[nH]nnc4c3)C[C@@H]2C1 [Example 15.03]
58 nM	O=C(CCc1ccc(C(F)(F)F)cn1)N1C[C@@H]2CN(C(=O)c3ccc4[nH]nnc4c3)C[C@H]2C1 [Example 17.09, 1-[(3aR,6aR)-5-(1H-benzotriazole-5-carbonyl)-hexahydro-pyrrolo[3,4-c]pyrrol-2-yl]-3-(5-trifluoromethyl-pyridin-2-yl)-propan-1-one]
1710 nM	CC(=O)c1ccccc1OCC(=O)N1C[C@@H]2CN(C(=O)c3ccc4[nH]nnc4c3)C[C@H]2C1 [Example 19.04, 2-(2-acetyl-phenoxy)-1-[(3aS,6aS)-5-(1H-benzotriazole-5-carbonyl)-hexahydro-pyrrolo[3,4-c]pyrrol-2-yl]-ethanone]
1 nM	CC(C)(C)c1cc(Br)ccc1OCC(=O)N1C[C@@H]2CN(C(=O)[C@@H]3CCc4[nH]nnc4C3)C[C@H]2C1 [Example 19.29, 1-[(3aS,6aS)-5-[(5R)-4,5,6,7-tetrahydro-1H-benzotriazole-5-carbonyl]-1,3,3a,4,6,6a-hexahydropyrrolo[3,4-c]pyrrol-2-yl]-2-(4-bromo-2-tert-butylphenoxy)ethanone]
10 nM	O=C(c1ccc(-c2ccc(Cl)cc2)cc1)N1C[C@H]2CN(C(=O)c3ccc4[nH]nnc4c3)C[C@@H]2C1 (stereo in doubt) [Example 19.13, (1H-benzotriazol-5-yl)-[(3aS,6aS)-5-(4′-chloro-biphenyl-4-carbonyl)-hexahydro-pyrrolo[3,4-c]pyrrol-2-yl]-methanone]

Continued, compound first:

SMILES	IC50
O=C(/C=C/c1ccc(OC(F)(F)F)cc1)N1CC[C@@H]2CN(C(=O)N3CCn4nc(C(F)(F)F)nc4C3)C[C@@H]2CC1 [Example 8.07]	1840 nM
O=C(CCc1cc(Cl)cc(Cl)c1)N1C[C@@H]2CN(C(=O)c3ccc4[nH]c(=O)oc4c3)C[C@@H]2C1 [Example 1.02, 6-((3aR,6aS)-5-(3-(3,5-dichlorophenyl)propanoyl)octahydropyrrolo[3,4-c]pyrrole-2-carbonyl)benzo[d]oxazol-2(3H)-one]	77 nM
O=C(OCc1ccc(OC(F)(F)F)cc1)N1C[C@@H]2CN(C(=O)c3cc(F)c4[nH]nnc4c3)C[C@H]2C1 [Example 1.53, (3aS,6aS)-5-(7-fluoro-1H-benzotriazole-5-carbonyl)-hexahydro-pyrrolo[3,4-c]pyrrole-2-carboxylic acid 4-trifluoromethoxy-benzyl ester]	52 nM
CCOc1cc(C(=O)N2C[C@@H]3CN(C(=O)c4ccc5[nH]nnc5c4F)C[C@H]3C2)nc2ccccc12 [Example 1.61, (4-ethoxyquinolin-2-yl)((3aS,6aS)-5-(4-fluoro-1H-benzo[d][1,2,3]triazole-5-carbonyl)hexahydropyrrolo[3,4-c]pyrrol-2(1H)-yl)methanone]	21 nM
O=C(/C=C/c1cc(Cl)cc(Cl)c1)N1CC[C@@H]2CN(C(=O)c3ccc4[nH]nnc4c3)C[C@H]2C1 (relative stereo) [Example 13, (E)-1-[trans-2-(1H-Benzotriazole-5-carbonyl)-octahydro-pyrrolo[3,4-c]pyridin-5-yl]-3-(3,5-dichloro-phenyl)-prop-2-en-1-one]	57 nM
O=C(OCc1cc(Cl)cc(Cl)c1)N1C[C@H]2CCN(C(=O)c3ccc4[nH]nnc4c3)C[C@@H]2C1 (relative stereo) [Example 12B, trans-3,5-dichlorobenzyl 5-(1H-benzo[d][1,2,3]triazole-5-carbonyl)-hexahydro-lH-pyrrolo[3,4-c]pyridine-2(3H)-carboxylate]	5 nM
O=C(CCc1ccc(OC(F)(F)F)cc1)N1C[C@@H]2CN(C(=O)c3ccc4[nH]c(=O)oc4c3)C[C@H]2C1 [Example 2.03, 6-[(3aR,6aR)-2-[3-[4-(trifluoromethoxy)phenyl]propanoyl]-1,3,3a,4,6,6a-hexahydropyrrolo[3,4-c]pyrrole-5-carbonyl]-3H-1,3-benzoxazol-2-one]	5 nM
O=C(CCc1ccc(OC(F)(F)F)cc1)N1C[C@@H]2CN(C(=O)c3ccc4[nH]nnc4c3F)C[C@H]2C1 [Example 1.59, 1-[(3aR,6aR)-5-(4-fluoro-1H-benzotriazole-5-carbonyl)-hexahydro-pyrrolo[3,4-c]pyrrol-2-yl]-3-(4-trifluoromethoxy-phenyl)-propan-1-one]	6 nM
O=C(/C=C/c1cc(Cl)cc(C(F)(F)F)c1)N1CC[C@@H]2CN(C(=O)c3ccc4[nH]nnc4c3)C[C@@H]2CC1 [Example 1.27, (E)-1-((3aR,8aS)-2-(1H-benzo[d][1,2,3]triazole-5-carbonyl)octahydropyrrolo[3,4-d]azepin-6(7H)-yl)-3-(3-chloro-5-(trifluoromethyl)phenyl)prop-2-en-1-one]	8 nM
CC(C)(Cc1cccc(Cl)c1)C(=O)N1CC[C@@H]2CN(C(=O)c3ccc4[nH]nnc4c3)C[C@@H]2CC1 [Example 1.14, 1-((3aR,8aS)-2-(1H-benzo[d][1,2,3]triazole-5-carbonyl)octahydropyrrolo[3,4-d]azepin-6(7H)-yl)-3-(3-chlorophenyl)-2,2-dimethylpropan-1-one]	810 nM
CS(=O)(=O)c1cc(COC(=O)N2C[C@@H]3CN(C(=O)c4ccc5[nH]nnc5c4)C[C@@H]3C2)cc(C(F)(F)F)c1 [Example 4.07, (3aS,6aR)-5-(1H-benzotriazole-5-carbonyl)-hexahydro-pyrrolo[3,4-c]pyrrole-2-carboxylic acid 3-methanesulfonyl-5-trifluoromethyl-benzyl ester]	16 nM
N#Cc1ccc(/C=C/C(=O)N2CC[C@@H]3CN(Cc4ccc5[nH]nnc5c4)C[C@@H]3CC2)cc1 [Example 6.05]	179 nM
CC1C(COC(=O)N2C[C@@H]3CN(C(=O)c4ccc5[nH]nnc5c4)C[C@@H]3C2)[C@H]2CC[C@@H]1C2 (stereo partly drawn) [Example 4.31, (3aS,6aR)-5-(1H-benzotriazole-5-carbonyl)-hexahydro-pyrrolo[3,4-c]pyrrole-2-carboxylic acid (1S,4R)-3-methyl-bicyclo[2.2.1]hept-2-ylmethyl ester]	1820 nM
O=C(OCc1ccc(OC(F)(F)F)cc1)N1C[C@@H]2CN(C(=O)c3ccc4[nH]nnc4n3)C[C@H]2C1 [Example 4.42, (3aS,6aS)-5-(1H-[1,2,3]triazolo[4,5-b]pyridine-5-carbonyl)-hexahydro-pyrrolo[3,4-c]pyrrole-2-carboxylic acid 4-trifluoromethoxy-benzyl ester]	24 nM
